Results: article PMC6556898 (Biomaterials, 2018)

Assays:
[1] = system: human monocyte-derived macrophages (MDM); assay: MTT cell vitality assay; type: cell-based; conditions: 12 hours
HIV-1ADA = assay: Antiretroviral activity: reverse transcriptase; type: cell-based

cell vitality (MTT) ([1]; 200 μM (RPV), highest concentration tested): 37.9% | effect on cell vitality (MTT) ([1]; up to 50 μM (RPV)): little effect on cell vitality | RT activity (progeny HIV virion production) (HIV-1ADA; 6.25 μM for 8 hours, challenge at day 5, MOI 0.1, 10 days post infection): virtually no protection | RT activity (progeny HIV virion production) (HIV-1ADA; 12.5 mM RPV equivalents (printed) for 8 hours, challenge at day 5): no protection
SMILES: Cc1cc(/C=C/C#N)cc(C)c1Nc1ccnc(Nc2ccc(C#N)cc2)n1 [native RPV, rilpivirine]
